Experiments:
[1] = tested on: old HSCs; assay: Polar distribution of Cdc42 in LT-HSCs (confocal); assay type: cell-based, mouse; settings: sorted LT-HSCs, 10 μM, 16 h in HSC media; 50-60 HSCs scored for Cdc42 polarity; repeated two times
Experimental: For phosho-p38 and TXNIP analysis using flow cytometry, total BM cells were first stained with surface markers and then fixed and permeabilized with the Cytofix/Perm Solution (BD Biosciences). For TXNIP staining, the cells were blocked with PBS containing 5% BSA for 30 min at RT and then incubated with primary antibody (1:50 dilution) for 1 h in PBS containing 5% BSA, washed three times with PBS and then incubated with a secondary Alexa Fluor 647 (Life technology; 1:1,000 dilution) for 1 h at RT or for phospho-p38 staining, the cells were incubated with anti-phospho-p38-APC (1:40 dilution) at 4 °C for 30 min in PBS containing 2% FBS. For confocal imaging, freshly isolated LT-HSCs were seeded on fibronectin-coated coverslips at 4 °C for 10 min and were immediately fixed. After fixation, cells were permeabilized with 0.2% Triton X-100 for 20 min and blocked with PBS containing 5% BSA for 30 min at RT. Cells were stained primary and secondary antibodies for 1 h at RT and then were mounted with DAPI containing mounting reagent (Molecular Probes). […] After fixation, cells were permeabilized with 0.2% Triton X-100 for 20 min and blocked with PBS containing 5% BSA for 30 min at RT. […] Fifty to sixty individual HSCs were scored for polarity of Cdc42. […]

[2] = tested on: TXNIP−/− HSCs; assay: ROS and phospho-p38 of LT-HSCs after NAC treatment in vivo; set-up: species or system mouse; settings: 12-month-old TXNIP−/− mice, NAC 100 mg kg−1 i.p., after 12 hours; n=3
Experimental: Supplementary Figure 2. Expression of p38 and TXNIP in HSCs and their interaction.
(a,b) ROS (a) and phospho- p38 level (b) of LT-HSCs after NAC treatment. We i.p. injected
100 mg kg-1 NAC into mice then anal yzed after 12 hours (n=3 ) . (c) Quantitative real-time
PCR of p38famil y in indicated subsets (n=3). ( d) Western blot anal yses of lin- cells (r epeated
3 times). ( e) Real-time PCR of TXNIP i n LT -HSCs (n=3). ( f) Confocal images of TXNIP in
LT-HSCs (rep eated 3 times). (g) Western blot anal yses of BM cells (rep eated 2 times). ( h,i )
GST pull-down assa y (repeated 3 times). ( j) Constructed p38 mutant clones. ( k) GST pull-
down assays between TXNIP and p38 mutants (repeated 3 times). Data are mean ± s.d.
Statistical significance was determined using a two-tailed Student’s t -tests. **P < 0.01.
matched WT mice (Fig. 1b). To make the data more consistent, the authors should present
their data as percentages of bone marrow cells and absolute number of LT-HSCs, SH-HSCs
Thank you for your valuable comments. We calculated the percentages of bone
marrow cells and absolute number of LT-HSCs, SH-HSCs and MPPs, and presented
the results in our new version Supplementary Fig. 1c,d.
the exhaustion of HSCs in TXNIP-/- mice by high ROS. We have added this text
“Next, we analyzed the frequency of BM cells and absolute number of LT-HSCs,
ST-HSCs and MPPs in each mouse. […]

[3] = tested on: mice; assay: 5-FU haematopoietic stress in mice; assay type: in vivo, mouse
Experimental: young TXNIP+/+ or T X N IP -/- mice after 5-FU (150 mg kg-1) administration (n=10). NAC was
i.p. injected 100 m g kg -1 daily starting at da y -1. […] We i.p. injected
5- FU (150 mg kg-1) and NAC (100 mg kg-1) then examined ROS in HSCs after 24 hours
Data are mean ± s.d. Statistical significance was determined using a two-t ailed
Student’s t -tests. *P< 0.05, **P < 0.01, ***P <0.001.

[4] = tested on: TXNIP-p38 interaction; assay: TXNIP-p38 interaction (immunoprecipitation, in situ PLA, GST pull-down); assay type: cell-based; settings: GST pull-down assay in 293T cells
[5] = Solubility; assay type: physicochemical; settings: authors' statement in response to reviewers
[6] = tested on: aged HSCs; assay: Competitive transplantation of treated HSCs; assay type: in vivo, mouse; settings: long-term SB203580-administered recipients; n=6-7 from two experiments (Fig. 3d,e)
Source text: The repopulation of donor-derived cells was monitored by staining PB from tail vein and BM cells with antibodies against indicated surface markers after 16 weeks.

[7] = tested on: p38α; assay: In vitro kinase assay for p38 (phospho-ATF2 read-out); assay type: biochemical, human; settings: His-p38α, phospho-ATF2 levels; repeated 2 times (Suppl. Fig. 4b)
Experimental: To examine the kinase activity of p38 in vitro, we used p38 MAP Kinase assay kit (9820, Cell Signaling). We added 0.5–1 μg of His-p38α for kinase assay and its activity was determined by phospho-ATF2 levels. […] FLAG-p38α, β, γ and δ were expressed in 293T cells (ATCC). p38 isoforms were immunoprecipitated with α-FLAG antibody (Sigma; 1:250 dilution) then we performed in vitro kinase assay.

Molecule: YGRKKRRQRRR [TAT]
- % of polarized cells (Old HSCs) [1]: 9.3%

Molecule: CC(=O)N[C@@H](CS)C(=O)O [NAC, N-acetyl-L-cysteine]
- ROS level in HSCs [2]: decreased
- p38 activation in HSCs [2]: decreased
- 5-FU-induced ROS in HSCs ([3]; 5-FU 150 mg kg−1 and NAC 100 mg kg−1 i.p., ROS after 24 hours, n=3): reversed
- rescue of TXNIP−/− mice from 5-FU-induced leucopenia (survival) ([3]; young mice, 5-FU 150 mg kg−1, NAC 100 mg kg−1 i.p. daily from day −1, n=10): fully rescued

Molecule: C[S+]([O-])c1ccc(-c2nc(-c3ccncc3)c(-c3ccc(F)cc3)[nH]2)cc1 (stereo not shown) [SB203580]
- p38 interaction ability with TXNIP [4]: did not affect
- solubility [5]: DMSO soluble
- p38 activity and ROS in donor-derived HSCs [6]: maintained low levels of p38 activity and ROS
- % of polarized cells (Old HSCs) [1]: 76.9%

B1: GST-TXNIP-T: GST-fused truncation mutant for TXNIP (150a.a–317a.a) (protein)
chain: DVNTPDLMAPVSAKKEKKVSCMFIPDGRVSVSARIDRKGFCEGDEISIHADFENTCSRIVVPKAAIVARHTYLANGQTKVLTQKLSSVRGNHIISGTCASWRGKSLRVQKIRPSILGCNILRVEYSLLIYVSVPGSKKVILDLPLVIGSRSGLSSRTSSMASRTSSEM
modifications: left off: GST, end not stated, kept
- p38 kinase activity in vitro [7]: inhibited p38 kinase activity in vitro
